Results taken from publication PMC12809495, “Potential 14-3-3 binding sites in sirtuins reveal extended phosphosite-recognition modes” (Acta Crystallographica Section F: Structural Biology …, 2026).
Where two headings read alike, the source gives them in different places. Where a SMILES comes first, the peptide text is derived from it. [ ]: non-standard residue; d: D form. pT = C[C@@H](OP(=O)(O)O)[C@H](N)C(=O)O; pS = N[C@@H](COP(=O)(O)O)C(=O)O

Tests used:
[1] = target: T1, 14-3-3σ-ΔC (Homo sapiens, UniProt P31947); test: Label-free microscale thermophoresis (MST) binding, 14-3-3σ; details: for Affinity estimates by MicroScale Thermophoresis, 14-3-3 isoform sigma (Kd): Fig. 1, label-free MST, 0.6 µM 14-3-3 protein, 25 mM MES pH 6.5, 5 mM MgCl2, 5 mM CaCl2, 25°C, Kd from duplicate measurements
T1 construct: His6; made in house; host or cells: Escherichia coli BL21 Rosetta (DE3)
T1 sequence (P31947 1-231 limits assumed): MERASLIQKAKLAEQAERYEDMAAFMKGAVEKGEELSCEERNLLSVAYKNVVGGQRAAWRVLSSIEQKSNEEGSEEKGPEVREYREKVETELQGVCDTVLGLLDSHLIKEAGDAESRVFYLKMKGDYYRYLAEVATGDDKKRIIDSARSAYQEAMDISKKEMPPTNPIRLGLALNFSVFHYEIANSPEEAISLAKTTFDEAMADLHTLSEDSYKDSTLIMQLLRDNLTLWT
Procedure: (§1) The binding of phosphorylated sirtuin peptides (Fig. 1 ▸) was analyzed using the change in the intrinsic fluorescence signal of the 14-3-3 proteins measured with label-free microscale thermophoresis using a Nanotemper Monolith NT.LabelFree or NT.115. A typical binding experiment using 0.6 µM 14-3-3 protein was performed in a modified MST buffer consisting of 25 mM MES pH 6.5, 5 mM MgCl2, 5 mM CaCl2. The measurements were performed at 25°C using a LED power of 10–40%. All measurements were performed at least in duplicate, and the results shown are representative measurements individually fitted using GraFit 7 (Erathicus Software, Horley, United Kingdom).
(§2) Figure 1 Classification and analysis of sirtuin PSSM results for potential 14-3-3 phosphoserine binding sites. Peptides with a gray background were not analyzed experimentally. Score is the overall PSSM score for the phosphorylation site; rank is the order within the 17 proposed sirtuin binding sites. Conserved residues in the 14-3-3 motifs are marked in green. Residues with restricted (proline) or very flexible (glycine) protein backbone or with a very large side chain (tryptophan) are marked in red. Amino acids with the same or similar hydrophobicity/size are shown in magenta. Kd values from duplicate measurements are colored green for Kd < 100 µM. Fields marked in red indicate no binding or no successful experiment. TEXT PRINTED IN THE PICTURE: Sirt1 S26: Affinity estimates by MicroScale Thermophoresis [μM], 14-3-3 isoform sigma: none | Sirt1 S670: Affinity estimates by MicroScale Thermophoresis [μM], 14-3-3 isoform gamma: aggr.; Affinity estimates by MicroScale Thermophoresis [μM], 14-3-3 isoform epsilon: > 183; Affinity estimates by MicroScale Thermophoresis [μM], 14-3-3 isoform theta: 93; Affinity estimates by MicroScale Thermophoresis [μM], 14-3-3 isoform sigma: 5 | Sirt3 S103: Affinity estimates by MicroScale Thermophoresis [μM], 14-3-3 isoform gamma: aggr.; Affinity estimates by MicroScale Thermophoresis [μM], 14-3-3 isoform epsilon: > 267; Affinity estimates by MicroScale Thermophoresis [μM], 14-3-3 isoform theta: 52; Affinity estimates by MicroScale Thermophoresis [μM], 14-3-3 isoform sigma: 10 | Sirt3 S103wt: Affinity estimates by MicroScale Thermophoresis [μM], 14-3-3 isoform gamma: aggr.; Affinity estimates by MicroScale Thermophoresis [μM], 14-3-3 isoform theta: none; Affinity estimates by MicroScale Thermophoresis [μM], 14-3-3 isoform sigma: none | Sirt3 S105: Affinity estimates by MicroScale Thermophoresis [μM], 14-3-3 isoform gamma: aggr.; Affinity estimates by MicroScale Thermophoresis [μM], 14-3-3 isoform epsilon: > 215; Affinity estimates by MicroScale Thermophoresis [μM], 14-3-3 isoform theta: 60; Affinity estimates by MicroScale Thermophoresis [μM], 14-3-3 isoform sigma: none | Sirt5 S168: Affinity estimates by MicroScale Thermophoresis [μM], 14-3-3 isoform epsilon: aggr.; Affinity estimates by MicroScale Thermophoresis [μM], 14-3-3 isoform theta: aggr.; Affinity estimates by MicroScale Thermophoresis [μM], 14-3-3 isoform sigma: > 329 | Sirt6 T337: Affinity estimates by MicroScale Thermophoresis [μM], 14-3-3 isoform epsilon: > 420; Affinity estimates by MicroScale Thermophoresis [μM], 14-3-3 isoform sigma: 12 | Sirt6 S338: Affinity estimates by MicroScale Thermophoresis [μM], 14-3-3 isoform epsilon: 19; Affinity estimates by MicroScale Thermophoresis [μM], 14-3-3 isoform sigma: 24 | Sirt7 S136: Affinity estimates by MicroScale Thermophoresis [μM], 14-3-3 isoform epsilon: none; Affinity estimates by MicroScale Thermophoresis [μM], 14-3-3 isoform theta: 30; Affinity estimates by MicroScale Thermophoresis [μM], 14-3-3 isoform sigma: 49
For nine of the sites, including sites from all sirtuin isoforms except Sirt4, endecameric phosphopeptides were chemically synthesized for in vitro analysis. […]

[2] = target: T2, 14-3-3 isoform gamma (Homo sapiens, UniProt P61981); test: Label-free microscale thermophoresis (MST) binding, 14-3-3 gamma; details: 0.6 µM 14-3-3 protein, 25 mM MES pH 6.5, 5 mM MgCl2, 5 mM CaCl2, 25°C, Kd from duplicate measurements, aggr. = no successful experiment
T2 construct: His6; made in house; host or cells: Escherichia coli BL21 Rosetta (DE3)
T2 sequence (P61981 1-247): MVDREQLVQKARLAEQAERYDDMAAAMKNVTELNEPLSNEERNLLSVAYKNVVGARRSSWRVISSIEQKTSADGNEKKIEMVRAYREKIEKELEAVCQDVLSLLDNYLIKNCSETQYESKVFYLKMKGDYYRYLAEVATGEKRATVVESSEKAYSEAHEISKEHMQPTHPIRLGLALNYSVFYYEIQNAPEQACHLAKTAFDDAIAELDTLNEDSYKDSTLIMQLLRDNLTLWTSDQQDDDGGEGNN
Procedure: as §1
Figure 1 Classification and analysis of sirtuin PSSM results for potential 14-3-3 phosphoserine binding sites. Peptides with a gray background were not analyzed experimentally. Score is the overall PSSM score for the phosphorylation site; rank is the order within the 17 proposed sirtuin binding sites. Conserved residues in the 14-3-3 motifs are marked in green. Residues with restricted (proline) or very flexible (glycine) protein backbone or with a very large side chain (tryptophan) are marked in red. Amino acids with the same or similar hydrophobicity/size are shown in magenta. Kd values from duplicate measurements are colored green for Kd < 100 µM. Fields marked in red indicate no binding or no successful experiment. […]

[3] = target: T3, 14-3-3 isoform theta (Homo sapiens, UniProt P27348); test: Label-free microscale thermophoresis (MST) binding, 14-3-3 theta; details: for Affinity estimates by MicroScale Thermophoresis, 14-3-3 isoform theta (Kd): label-free MST, 0.6 µM 14-3-3 protein, 25 mM MES pH 6.5, 5 mM MgCl2, 5 mM CaCl2, 25°C, Kd from duplicate measurements
T3 construct: His6; made in house; host or cells: Escherichia coli BL21 Rosetta (DE3)
T3 sequence (P27348 1-245): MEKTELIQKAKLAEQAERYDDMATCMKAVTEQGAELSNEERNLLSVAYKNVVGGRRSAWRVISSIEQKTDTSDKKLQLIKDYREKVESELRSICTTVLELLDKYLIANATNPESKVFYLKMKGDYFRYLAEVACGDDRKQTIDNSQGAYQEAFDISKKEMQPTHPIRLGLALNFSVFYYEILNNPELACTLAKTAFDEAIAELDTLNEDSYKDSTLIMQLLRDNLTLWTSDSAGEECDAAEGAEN
Procedure: as §1, §2

[4] = target: T4, 14-3-3 isoform epsilon (Homo sapiens, UniProt P62258); test: Label-free microscale thermophoresis (MST) binding, 14-3-3 epsilon
T4 construct: His6; made in house; host or cells: Escherichia coli BL21 Rosetta (DE3)
T4 sequence (P62258 1-255): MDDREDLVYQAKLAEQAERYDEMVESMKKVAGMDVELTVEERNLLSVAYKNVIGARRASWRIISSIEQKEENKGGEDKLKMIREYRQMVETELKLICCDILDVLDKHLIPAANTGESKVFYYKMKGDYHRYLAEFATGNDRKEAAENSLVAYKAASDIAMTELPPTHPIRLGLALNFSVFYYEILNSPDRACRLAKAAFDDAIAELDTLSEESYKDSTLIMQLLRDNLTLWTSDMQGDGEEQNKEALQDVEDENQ
Procedure: as §1, §2

SMILES | Affinity estimates by MicroScale Thermophoresis, 14-3-3 isoform sigma (Kd) [1] | Affinity estimates by MicroScale Thermophoresis, 14-3-3 isoform gamma (Kd) [2] | Affinity estimates by MicroScale Thermophoresis, 14-3-3 isoform theta (Kd) [3] | Kd [1] [µM] | Kd [3] [µM] | Kd [4] [µM] | other results
CC[C@H](C)[C@H](NC(=O)[C@H](CO)NC(=O)[C@H](CCCNC(=N)N)NC(=O)[C@H](CCCNC(=N)N)NC(=O)CN)C(=O)N[C@@H](CO)C(=O)N[C@@H](Cc1ccccc1)C(=O)N[C@@H](CO)C(=O)N[C@H](C(=O)NCC(=O)N[C@@H](C)C(=O)O)C(C)C [Sirt3^S103] (H-GRRSISFSVGA-OH) | none | aggr. | none | – | – | – | –
CC[C@H](C)[C@H](NC(=O)[C@H](CO)NC(=O)[C@H](CCCNC(=N)N)NC(=O)[C@H](CCCNC(=N)N)NC(=O)CN)C(=O)N[C@@H](COP(=O)(O)O)C(=O)N[C@@H](Cc1ccccc1)C(=O)N[C@@H](CO)C(=O)N[C@H](C(=O)NCC(=O)N[C@@H](C)C(=O)O)C(C)C [Sirt3^pS103] (H-GRRSI[pS]FSVGA-OH) | – | aggr. | – | 2.1 ± 1.1 | 52 | > 267 | –
CC[C@H](C)[C@H](NC(=O)[C@H](CO)NC(=O)[C@@H](N)CCCNC(=N)N)C(=O)N[C@@H](CO)C(=O)N[C@@H](Cc1ccccc1)C(=O)N[C@@H](COP(=O)(O)O)C(=O)N[C@H](C(=O)NCC(=O)N[C@@H](C)C(=O)N[C@@H](CO)C(=O)N[C@@H](CO)C(=O)O)C(C)C [Sirt3^pS105] (H-RSISF[pS]VGASS-OH) | none | aggr. | – | 19.4 ± 3 | 60 | > 215 | –
CC(C)[C@H](NC(=O)CNC(=O)[C@H](CS)NC(=O)[C@H](COP(=O)(O)O)NC(=O)[C@@H](NC(=O)[C@H](CS)NC(=O)[C@H](CCCNC(=N)N)NC(=O)[C@@H](NC(=O)[C@@H](N)CCCCN)[C@@H](C)O)[C@@H](C)O)C(=O)N[C@H](C(=O)N[C@@H](C)C(=O)O)C(C)C [Sirt5 S168] (H-KTRCT[pS]CGVVA-OH; N-terminus and C-terminus assumed) | – | – | aggr. | – | – | – | Affinity estimates by MicroScale Thermophoresis, 14-3-3 isoform epsilon (Kd) ([4]; label-free MST, 0.6 µM 14-3-3 protein, 25 mM MES pH 6.5, 5 mM MgCl2, 5 mM CaCl2, 25°C, Kd from duplicate measurements): aggr.
C[C@H](NC(=O)[C@@H]1CCCN1C(=O)[C@H](COP(=O)(O)O)NC(=O)[C@@H](NC(=O)[C@@H]1CCCN1C(=O)[C@H](CCCNC(=N)N)NC(=O)[C@H](CCC(=O)O)NC(=O)[C@@H](N)CCCNC(=N)N)[C@@H](C)O)C(=O)N1CCC[C@H]1C(=O)N[C@@H](Cc1c[nH]cn1)C(=O)N[C@@H](CCCNC(=N)N)C(=O)O [Sirt6^pS338] (H-RERPT[pS]PAPHR-OH) | – | – | – | – | – | – | Kd ([4]; label-free MST, 0.6 µM 14-3-3 protein, 25 mM MES pH 6.5, 5 mM MgCl2, 5 mM CaCl2, 25°C, Kd from duplicate measurements, read-out: Affinity estimates by MicroScale Thermophoresis, 14-3-3 isoform epsilon (Kd)): 19 µM
C[C@H](NC(=O)[C@@H]1CCCN1C(=O)[C@H](CO)NC(=O)[C@@H](NC(=O)[C@@H]1CCCN1C(=O)[C@H](CCCNC(=N)N)NC(=O)[C@H](CCC(=O)O)NC(=O)[C@H](CCCNC(=N)N)NC(=O)[C@@H](N)CCCCN)[C@@H](C)OP(=O)(O)O)C(=O)N1CCC[C@H]1C(=O)N[C@@H](Cc1c[nH]cn1)C(=O)O [Sirt6^pT337] (H-KRERP[pT]SPAPH-OH) | – | – | – | – | – | > 420 | –
